# Columns and labels:
# morningglory = test: Test A postemergence; format: in vivo, Ipomoea spp.
# How it was run: (§1)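 Pre- and postemergence greenhouse test; loam+sand; cpd in non-phytotox. solvent/surfactant; post at 1–2 leaf, 2–10 cm; visual score ~10 d, 0 = none, 100 = complete control.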
# waterhemp = test: Test C preemergence; format: in vivo, Amaranthus rudis; details: for Waterhemp plant response rating / Plant response rating, Waterhemp: preemergence; for Plant response rating, Waterhemp: scale 0 to 100, 0 = no effect, 100 = complete control
# How it was run: (§2)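 Seeds sown in loam–sand blend and treated preemergence with test chemicals in non-phytotoxic solvent with surfactant; postemergence plants in peat-based medium, treated at 2–18 cm (1- to 4-leaf stage). Greenhouse 13 to 15 days, then visual rating versus controls, 0 (no effect) to 100 (complete control).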
# velvetleaf [1] = test: Test A preemergence; format: in vivo, Abutilon theophrasti
# How it was run: as §1
# corn = test: Test C postemergence; format: in vivo, Zea mays; details: for Plant response rating (scale of 0 to 100 where 0 is no effect and 100 is complete control), Corn: Postemergence, 31 g ai/ha, visually evaluated after 13 to 15 days; for Corn plant response rating / Plant response rating, Corn: postemergence; for Corn plant response rating: 62 g ai/ha, scale 0 to 100
# Description: (§3) Seeds of plant species selected from blackgrass (Alopecurus myosuroides), ryegrass, Italian (Italian ryegrass, Lolium multiflorum), wheat (winter wheat, Triticum aestivum), galium (catchweed bedstraw, Galium aparine), corn (Zea mays), crabgrass, large (large crabgrass, Digitaria sanguinalis), foxtail, giant (giant foxtail, Setaria faberii), johnsongrass (Sorghum halepense), lambsquarters (Chenopodium album), morningglory (Ipomoea coccinea), nutsedge, yellow (yellow nutsedge, Cyperus esculentus), pigweed (redroot pigweed, Amaranthus retroflexus), ragweed (common ragweed, Ambrosia elation), soybean (Glycine max), barnyardgrass (Echinochloa crus-galli), oilseed rape (Brassica napus), waterhemp (common waterhemp, Amaranthus rudis), oat, wild (wild oat, Avena fatua), kochia (Kochia scoparia), Surinam grass (Brachiaria decumbens), foxtail, green (green foxtail, Setaria viridis), goosegrass (Eleusine indica), bromegrass, downy (downy bromegrass, Bromus tectorum), nightshade (eastern black nightshade, Solanum ptycanthum), cocklebur (common cocklebur, Xanthium strumarium), cupgrass, woolly (woolly cupgrass, Eriochloa villosa), bermudagrass (Cynodon dactylon), sunflower, (common oilseed sunflower, Helianthus annuus), Russian thistle (Salsola kali), and velvetleaf (Abutilon theophrasti) were planted into a blend of loam soil and sand and treated preemergence with test chemicals formulated in a non-phytotoxic solvent mixture which included a surfactant.
# (§4) At the same time, plants selected from these crop and weed species and also chickweed (common chickweed, Stellaria media), canarygrass (littleseed canarygrass, Phalaris minor), and deadnettle (henbit deadnettle, Lamium amplexicaule), were planted in pots containing Redi-Earth® planting medium (Scotts Company, 14111 Scottslawn Road, Marysville, Ohio 43041) comprising spaghnum peat moss, vermiculite, wetting agent and starter nutrients and treated with postemergence applications of test chemicals formulated in the same manner. Plants ranged in height from 2 to 18 cm (1- to 4-leaf stage) for postemergence treatments. Treated plants and controls were maintained in a greenhouse for 13 to 15 days, after which time all species were compared to controls and visually evaluated. Plant response ratings, summarized in Table C, are based on a scale of 0 to 100 where 0 is no effect and 100 is complete control. A dash (-) response means no test result.
# galium = test: Test C postemergence; format: in vivo, Galium aparine; details: for Plant response rating (scale of 0 to 100 where 0 is no effect and 100 is complete control), Galium: Postemergence, 31 g ai/ha, visually evaluated after 13 to 15 days
# Description: as §3, §4
# rice = test: Test B flood; format: in vivo, Oryza sativa; details: 250 g ai/ha, visual rating on 0 to 100 scale (0 no effect, 100 complete control), 13 to 15 days
# How it was run: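 Visual ratings on a 0–100 scale, where 0 means no effect and 100 means complete control, were assigned by comparison with controls 13 to 15 days after treatment. Compounds went into paddy water over 2-leaf plants flooded to 3 cm.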
# foxtail, giant [2] = test: Test A postemergence; format: in vivo, Setaria faberii
# How it was run: as §1
# crabgrass, large [3] = test: Test C postemergence; format: in vivo, Digitaria sanguinalis; details: for Plant response rating (scale of 0 to 100 where 0 is no effect and 100 is complete control), Crabgrass, Large: Postemergence, 31 g ai/ha, visually evaluated after 13 to 15 days; for Crabgrass, Large plant response rating / Plant response rating, Crabgrass, Large: postemergence; for Crabgrass, Large plant response rating: 62 g ai/ha, scale 0 to 100
# Description: as §3, §4
# velvetleaf [4] = test: Test C postemergence; format: in vivo, Abutilon theophrasti
# Description: as §3, §4
# foxtail, giant [5] = test: Test A preemergence; format: in vivo, Setaria faberii
# How it was run: as §1
# nutsedge, yellow = test: Test C preemergence; format: in vivo, Cyperus esculentus; details: for Nutsedge, Yellow plant response rating / Plant response rating, Nutsedge, Yellow: preemergence; for Plant response rating, Nutsedge, Yellow: scale 0 to 100, 0 = no effect, 100 = complete control
# How it was run: as §2
# crabgrass, large [6] = test: Test A preemergence; format: in vivo, Digitaria sanguinalis
# How it was run: as §1
# barnyardgrass = test: Test C preemergence; format: in vivo, Echinochloa crus-galli; details: for Barnyardgrass plant response rating / Plant response rating, Barnyardgrass: preemergence; for Plant response rating, Barnyardgrass: scale 0 to 100, 0 = no effect, 100 = complete control
# How it was run: as §2
# [7] = Postemergence, 500 g ai/ha, visual rating after approx. 10 days, 0 to 100 scale (0 no effect, 100 complete control)
# [8] = postemergence, 125 g ai/ha, about 10 days, visual rating on 0 to 100 scale (0 no effect, 100 complete control)
# [9] = 31 g ai/ha, visual rating, scale 0 to 100 (0 no effect, 100 complete control), 13 to 15 days
# [10] = 125 g ai/ha, scale 0 to 100, 0 is no effect, 100 is complete control
# [11] = Preemergence, 500 g ai/ha, 0 to 100 scale, 0 no effect, 100 complete control
# [12] = preemergence, 125 g ai/ha, visual injury, 0 to 100 scale, approx. 10 days
# [13] = 250 g ai/ha, scale 0 to 100 (0 no effect, 100 complete control)
# [14] = 125 g ai/ha, scale 0 to 100, 0 no effect, 100 complete control
# [15] = postemergence, 250 g ai/ha, scale 0 to 100 (0 no effect, 100 complete control)
# [16] = postemergence, 125 g ai/ha, scale 0 to 100, 0 no effect, 100 complete control
# [17] = postemergence, 62 g ai/ha, scale 0 to 100
# [18] = Postemergence, 500 g ai/ha, 0 to 100 scale (0 no effect, 100 complete control)
# [19] = 62 g ai/ha, scale 0 to 100 (0 no effect, 100 complete control), 13 to 15 days
# [20] = 250 g ai/ha, scale 0 to 100, 0 is no effect, 100 is complete control
# [21] = preemergence, 125 g ai/ha, visual injury approx. 10 days after treatment
# [22] = preemergence, 500 g ai/ha, visual injury after approx. 10 days, 0 to 100 scale (0 no effect, 100 complete control)
compound,measurement,setting,value
"CCc1cc(C(=O)NCC(F)(F)F)nn1Cc1ccnc(C(F)(F)F)c1 [Compound 78, 5-ethyl-N-(2,2,2-trifluoroethyl)-1-[[(2-trifluoromethyl)-4-pyridinyl]methyl]-1H-pyrazole-3-carboxamide]",Morningglory plant response rating,morningglory; [7],100
same,Morningglory plant response rating,morningglory; [8],100
same,"Plant response rating (scale of 0 to 100), Waterhemp","waterhemp; Preemergence, 250 g ai/ha",100
same,Waterhemp plant response rating,waterhemp; [9],100
same,"Plant response rating, Waterhemp","waterhemp; 62 g ai/ha, 13 to 15 days",100
same,Waterhemp plant response rating,waterhemp; [10],100
same,Velvetleaf plant response rating,velvetleaf [1]; [11],100
same,Velvetleaf plant response rating,velvetleaf [1]; [12],100
same,"Plant response rating (scale of 0 to 100 where 0 is no effect and 100 is complete control), Corn",corn,10
same,Corn plant response rating,corn,15
same,"Plant response rating, Corn",corn; [13],80
same,"Plant response rating, Corn",corn; [14],25
same,"Plant response rating (scale of 0 to 100 where 0 is no effect and 100 is complete control), Galium",galium,80
same,"Plant response rating, Galium",galium; [15],80
same,"Plant response rating, Galium",galium; [16],80
same,"Plant response rating, Rice",rice,50
same,"Foxtail, Giant plant response rating","foxtail, giant [2]; [7]",100
same,"Foxtail, Giant plant response rating","foxtail, giant [2]; [8]",90
same,"Plant response rating (scale of 0 to 100 where 0 is no effect and 100 is complete control), Crabgrass, Large","crabgrass, large [3]",15
same,"Crabgrass, Large plant response rating","crabgrass, large [3]",25
same,"Plant response rating, Crabgrass, Large","crabgrass, large [3]; [13]",90
same,"Plant response rating, Crabgrass, Large","crabgrass, large [3]; [14]",80
same,"Plant response rating (scale of 0 to 100 where 0 is no effect and 100 is complete control), Velvetleaf","velvetleaf [4]; Postemergence, 31 g ai/ha, visually evaluated after 13 to 15 days",15
same,Velvetleaf plant response rating,velvetleaf [4]; [17],20
same,"Plant response rating, Velvetleaf",velvetleaf [4]; [15],75
same,"Plant response rating, Velvetleaf",velvetleaf [4]; [16],50
same,"Foxtail, Giant plant response rating","foxtail, giant [5]; [11]",100
same,"Foxtail, Giant plant response rating","foxtail, giant [5]; [12]",100
same,"Plant response rating (scale of 0 to 100), Nutsedge, Yellow","nutsedge, yellow; Preemergence, 250 g ai/ha",98
same,"Nutsedge, Yellow plant response rating","nutsedge, yellow; [9]",70
same,"Plant response rating, Nutsedge, Yellow","nutsedge, yellow; 62 g ai/ha, 13 to 15 days",85
same,"Nutsedge, Yellow plant response rating","nutsedge, yellow; [10]",98
same,"Crabgrass, Large plant response rating","crabgrass, large [6]; [11]",100
same,"Crabgrass, Large plant response rating","crabgrass, large [6]; [12]",100
same,"Plant response rating (scale of 0 to 100), Barnyardgrass","barnyardgrass; Preemergence, 250 g ai/ha",100
same,Barnyardgrass plant response rating,"barnyardgrass; 31 g ai/ha, scale 0 to 100 (0 no effect, 100 complete control), 13 to 15 days",100
same,"Plant response rating, Barnyardgrass","barnyardgrass; 62 g ai/ha, 13 to 15 days",100
same,Barnyardgrass plant response rating,barnyardgrass; [10],100
CCNC(=O)c1cc(CC)n(Cc2ccnc(C(F)(F)F)c2)n1 [Compound 196],Morningglory plant response rating,"morningglory; Postemergence, 125 g ai/ha, 0 to 100 scale, 0 no effect, 100 complete control",90
same,Morningglory plant response rating,morningglory; [18],100
same,Waterhemp plant response rating,waterhemp; [9],100
same,Waterhemp plant response rating,waterhemp; [19],100
same,"Plant response rating, Waterhemp","waterhemp; 125 g ai/ha, 13 to 15 days",100
same,Waterhemp plant response rating,waterhemp; [20],100
same,Velvetleaf plant response rating (0 to 100 scale),velvetleaf [1]; [21],80
same,Velvetleaf plant response rating,velvetleaf [1]; [22],100
same,"Plant response rating (scale of 0 to 100 where 0 is no effect and 100 is complete control), Corn",corn,5
same,Corn plant response rating,corn,5
same,"Plant response rating, Corn",corn; [13],15
same,"Plant response rating, Corn",corn; [14],5
same,"Plant response rating (scale of 0 to 100 where 0 is no effect and 100 is complete control), Galium",galium,40
same,Galium plant response rating,galium; [17],55
same,"Plant response rating, Galium",galium; [15],90
same,"Plant response rating, Galium",galium; [16],80
same,"Plant response rating, Rice",rice,20
same,"Foxtail, Giant plant response rating","foxtail, giant [2]; [18]",100
same,"Foxtail, Giant plant response rating","foxtail, giant [2]; [8]",90
same,"Plant response rating (scale of 0 to 100 where 0 is no effect and 100 is complete control), Crabgrass, Large","crabgrass, large [3]",5
same,"Crabgrass, Large plant response rating","crabgrass, large [3]",5
same,"Plant response rating, Crabgrass, Large","crabgrass, large [3]; [13]",25
same,"Plant response rating, Crabgrass, Large","crabgrass, large [3]; [14]",10
same,"Plant response rating, Velvetleaf",velvetleaf [4]; [15],50
same,"Foxtail, Giant plant response rating (0 to 100 scale)","foxtail, giant [5]; [21]",100
same,"Foxtail, Giant plant response rating","foxtail, giant [5]; [22]",90
same,"Nutsedge, Yellow plant response rating","nutsedge, yellow; [9]",15
same,"Nutsedge, Yellow plant response rating","nutsedge, yellow; [19]",65
same,"Plant response rating, Nutsedge, Yellow","nutsedge, yellow; 125 g ai/ha, 13 to 15 days",80
same,"Nutsedge, Yellow plant response rating","nutsedge, yellow; [20]",90
same,"Crabgrass, Large plant response rating (0 to 100 scale)","crabgrass, large [6]; [21]",100
same,"Crabgrass, Large plant response rating","crabgrass, large [6]; [22]",100
same,Barnyardgrass plant response rating,barnyardgrass; [9],98
same,Barnyardgrass plant response rating,barnyardgrass; [19],100
same,"Plant response rating, Barnyardgrass","barnyardgrass; 125 g ai/ha, 13 to 15 days",100
same,Barnyardgrass plant response rating,barnyardgrass; [20],100
